Test results reported in patent publication US12630528B2, “Amino aryl derivative useful as diacylglycerol acyltransferase 2 inhibitor and use thereof” (LG CHEM, LTD., priority 2019, dated 2026).

Molecular target: T1, human DGAT2 (Homo sapiens, UniProt Q96PD7)
T1 construct: FLAG (DYKDDDDK); made in house; host or cells: Sf-21 insect cells (BacPAK baculovirus system); membrane fraction used
T1 sequence (Q96PD7 1-388): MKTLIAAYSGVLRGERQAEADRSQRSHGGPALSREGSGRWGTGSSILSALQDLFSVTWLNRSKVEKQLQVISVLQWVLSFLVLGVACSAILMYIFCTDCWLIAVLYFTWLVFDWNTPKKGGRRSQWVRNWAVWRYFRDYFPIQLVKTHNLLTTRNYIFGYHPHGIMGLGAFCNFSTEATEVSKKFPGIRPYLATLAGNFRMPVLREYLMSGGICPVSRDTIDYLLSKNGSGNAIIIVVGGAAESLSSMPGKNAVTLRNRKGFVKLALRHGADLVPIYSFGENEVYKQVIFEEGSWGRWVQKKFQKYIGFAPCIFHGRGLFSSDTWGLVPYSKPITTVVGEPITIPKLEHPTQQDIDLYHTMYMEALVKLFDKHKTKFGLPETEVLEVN
Test: DGAT2 enzyme activity inhibition, Phospholipid FlashPlate SPA
Type: biochemical
Settings: recombinant human DGAT2 membrane protein from Sf-21 cells; inhibition of [14C]-TG production; 37° C.
Method: In order to prepare the pBacPAK9-DGAT2, which is DGAT2 expression vector, the human DGAT2 gene amplified by polymerase chain reaction (PCR) was cloned into the EcoR1 and Xho1 sites of the pBacPAK9 (clonctech) vector. The nucleotide sequence of the primers used in PCR was the forward primer 5′ […] (SEQ. ID. NO: 2). The composition of the reaction solution was to contain 50 ng of cDNA clone (OriGene), 200 μM of dATP, dCTP, dTTP, dGTP, 200 nM of each primer, 1 unit of Tag DNA Polymerase (Toyobo), 1×PCR buffer, and the final volume was adjusted to 20 μl. The reaction conditions were denatured at 95° C. for 5 minutes, followed by 30 times of 94° C. for 20 seconds, 60° C. for 20 seconds, and 72° C. for 90 seconds, followed by further reaction at 72° C. for 7 minutes.
Recombinant human DGAT2 protein was expressed in Sf-21 cells, which are insect cells, by using the BacPack baculovirus expression system (Clontech). The brief manufacturing process is as follows. First, the pBacPAK9-DGAT2 expression vector was transfected with BacPAK6 virus DNA (Bsu36I digest) into sf21 cells using Bacfectin to prepare a recombinant DGAT2 expressing baculovirus. The thus prepared baculovirus was infected with Sf-21 cells at 10 MOI (multiplicity of infection), and after 72 hours, infected insect cells were collected and membrane proteins were isolated. For membrane protein separation, the cell pellet was dissolved in a sucrose solution containing 250 mM sucrose, 10 mM Tris (pH 7.4), and 1 mM ethylenediamine-tetraacetic acid (EDTA), and then homogenized by using a dounce homogenizer, and the supernatant was taken by centrifuging at 600×g for 15 minutes, and centrifuged at 100,000×g for 1 hour to discard the supernatant, and the remaining pellet was resuspended in 20 mM HEPES buffer (pH 7.4). The prepared DGAT2 overexpressing membrane protein was dispensed in 100 μl and stored at −80° C. until use. Protein concentration was quantified by using the BCA Protein Assay Kit (Thermo Scientific).
In vitro DGAT2 analysis was performed using a Phospholipid Flash Plate (PerkinElmer) based on the principle of SPA (Scintilation Proximity Assay). First, DGAT2 inhibition compounds serially diluted 5 times from 3 nM to 10 μM (final concentration, 1% DMSO) were mixed in a buffer solution containing 2 μg DGAT2-membrane protein and 20 mM HEPES, 20 mM MgCl2, 1 mg/mL BSA, 50 μM 1,2 sn-oleoyl glycerol (Sigma), put in a 96-well flash plate (FlashPlate) and reacted at 37° C. for 20 minutes, and then 1 μM [14C] ole oil CoA (PerkinElmer, NEC651050UC) was added to be a final volume of 100 μL and further reacted at 37° C. for 15 minutes. After the enzymatic reaction was completed, 100 μL of isopropanol was added, the plate was sealed with a film, and the plate was shaken slowly in a plate shaker. The next day, the amplified scintillation signal (cpm) in Topcounter (Packard) was measured to measure the degree of production of [14C]-labeled triacyl glycerol (TG) as a reaction product. The measured value when the compound was not treated was used as a positive control, and the measured value of the compound treated group was calculated as a relative % to measure the inhibition effect of the compound on TG production.

Compound: CCOc1cccnc1O[C@@H]1CCCN(c2cncc(Nc3nccc(-c4cccc(OC(C)(C)C(=O)O)c4)n3)n2)C1 [Example 159, (R)-2-(3-(2-((6-(3-((3-ethoxypyridin-2-yl)oxy)piperidin-1-yl)pyrazin-2-yl)amino)pyrimidin-4-yl)phenoxy)-2-methylpropanoic Acid]
- IC50: 0.56 µM

Compound: CCOc1ccccc1O[C@@H]1CCCN(c2cncc(Nc3cccc(-c4cccc(C(C)(C)C(=O)O)c4)n3)n2)C1 [Example 60, (R)-2-(3-(6-((6-(3-(2-ethoxyphenoxy)piperidin-1-yl)pyrazin-2-yl)amino)pyridin-2-yl)phenyl)-2-methylpropanoic Acid]
- IC50: 0.22 µM

Compound: CCOc1cccnc1O[C@@H]1CCCN(c2ccnc(Nc3cccc(-c4cccc(CC(C)(C)C(=O)O)c4)n3)n2)C1 [Example 68, (R)-3-(3-(6-((4-(3-((3-ethoxypyridin-2-yl)oxy)piperidin-1-yl)pyrimidin-2-yl)amino)pyridin-2-yl)phenyl)-2,2-dimethylpropanoic Acid]
- IC50: 3.3 µM

Compound: CCOc1ccccc1O[C@@H]1CCCN(c2nccc(Nc3nccc(-c4ccc(CC(C)(C)C(=O)O)cc4)n3)n2)C1 [Example 155, (R)-3-(4-(2-((2-(3-(2-ethoxyphenoxy)piperidin-1-yl)pyrimidin-4-yl)amino)pyrimidin-4-yl)phenyl)-2,2-dimethylpropanoic Acid]
- IC50: 0.55 µM

Compound: CCOc1ccccc1O[C@@H]1CCCN(c2cncc(Nc3cccc(Oc4cccc(C(=O)O)c4)n3)n2)C1 [Example 87, (R)-3-((6-((6-(3-(2-ethoxyphenoxy)piperidin-1-yl)pyrazin-2-yl)amino)pyridin-2-yl)oxy)benzoic Acid]
- IC50: 0.5 µM

Compound: CCOc1cccnc1O[C@@H]1CCCN(c2cncc(Nc3nc(-c4cc(CC(C)(C)C(=O)O)ccc4F)ccc3F)n2)C1 [Example 108, (R)-3-(3-(6-((6-(3-((3-ethoxypyridin-2-yl)oxy)piperidin-1-yl)pyrazin-2-yl)amino)-5-fluoropyridin-2-yl)-4-fluorophenyl)-2,2-dimethylpropanoic Acid]
- IC50: 0.35 µM

Compound: CCOc1ccccc1O[C@@H]1CCCN(c2cncc(Nc3ncccc3C(=O)O)n2)C1 [Example 34, (R)-2-((6-(3-(2-ethoxyphenoxy)piperidin-1-yl)pyrazin-2-yl)amino)nicotinic Acid]
- IC50: > 10 µM

Compound: CCOc1ccccc1O[C@@H]1CCCN(c2cncc(Nc3cccc(Oc4ccc(CC(=O)O)cc4)n3)n2)C1 [Example 97, (R)-2-(4-((6-((6-(3-(2-ethoxyphenoxy)piperidin-1-yl)pyrazin-2-yl)amino)pyridin-2-yl)oxy)phenyl)acetic Acid]
- IC50: 0.9 µM

Compound: CCOc1ccccc1O[C@@H]1CCCN(c2cncc(Nc3ccnc(-c4ccc(CC(C)(C)C(=O)O)cc4)n3)n2)C1 [Example 172, (R)-3-(4-(4-((6-(3-(2-ethoxyphenoxy)piperidin-1-yl)pyrazin-2-yl)amino)pyrimidin-2-yl)phenyl)-2,2-dimethylpropanoic Acid]
- IC50: 0.25 µM

Compound: CCOc1ccccc1O[C@@H]1CCCN(c2cncc(Nc3ccc(CC(=O)O)cn3)n2)C1 [Example 36, (R)-2-(6-((6-(3-(2-ethoxyphenoxy)piperidin-1-yl)pyrazin-2-yl)amino)pyridin-3-yl)acetic Acid]
- IC50: > 10 µM

Compound: CCOc1ccccc1O[C@@H]1CCCN(c2cncc(Nc3cncc(-c4cccc(CC(C)(C)C(=O)O)c4)c3)n2)C1 [Example 47, (R)-3-(3-(5-((6-(3-(2-ethoxyphenoxy)piperidin-1-yl)pyrazin-2-yl)amino)pyridin-3-yl)phenyl)-2,2-dimethylpropanoic Acid]
- IC50: > 10 µM

Compound: CCOc1ccccc1O[C@@H]1CCCN(c2cncc(Nc3nccc(-c4ccc(CC(C)(C)C(=O)O)cc4)n3)n2)C1 [Example 153, (R)-3-(4-(2-((6-(3-(2-ethoxyphenoxy)piperidin-1-yl)pyrazin-2-yl)amino)pyrimidin-4-yl)phenyl)-2,2-dimethylpropanoic Acid]
- IC50: 0.16 µM

Compound: CCOc1ccccc1O[C@@H]1CCCN(c2cncc(Nc3ncc(F)c(-c4cccc(CC(C)(C)C(=O)O)c4)n3)n2)C1 [Example 164, (R)-3-(3-(2-((6-(3-(2-ethoxyphenoxy)piperidin-1-yl)pyrazin-2-yl)amino)-5-fluoropyrimidin-4-yl)phenyl)-2,2-dimethylpropanoic Acid]
- IC50: 0.32 µM

Compound: CCOc1ccccc1O[C@@H]1CCCN(c2cncc(Nc3nccc(-c4ccc(OC(C)(C)C(=O)O)cc4)n3)n2)C1 [Example 160, (R)-2-(4-(2-((6-(3-(2-ethoxyphenoxy)piperidin-1-yl)pyrazin-2-yl)amino)pyrimidin-4-yl)phenoxy)-2-methylpropanoic Acid]
- IC50: 0.13 µM

Compound: CCOc1ccccc1O[C@@H]1CCCN(c2cncc(Nc3ccnc(-c4cccc(CC(C)(C)C(=O)O)c4)n3)n2)C1 [Example 170, (R)-3-(3-(4-((6-(3-(2-ethoxyphenoxy)piperidin-1-yl)pyrazin-2-yl)amino)pyrimidin-2-yl)phenyl)-2,2-dimethylpropanoic Acid]
- IC50: 0.25 µM

Compound: CCOc1ccccc1O[C@@H]1CCCN(c2cncc(Nc3nccc(N4CCN(CC(=O)O)CC4)n3)n2)C1 [Example 127, (R)-2-(4-(2-((6-(3-(2-ethoxyphenoxy)piperidin-1-yl)pyrazin-2-yl)amino)pyrimidin-4-yl)piperazin-1-yl)acetic Acid]
- IC50: 2.9 µM

Compound: CCOc1ccccc1O[C@@H]1CCCN(c2cncc(Nc3ccnc(-c4cccc(OC(C)(C)C(=O)O)c4)n3)n2)C1 [Example 174, (R)-2-(3-(4-((6-(3-(2-ethoxyphenoxy)piperidin-1-yl)pyrazin-2-yl)amino)pyrimidin-2-yl)phenoxy)-2-methylpropanoic Acid]
- IC50: 0.48 µM

Compound: CCOc1cccnc1O[C@@H]1CCCN(c2cncc(Nc3cccc(Oc4ccc(CC(=O)O)cc4)n3)n2)C1 [Example 98, (R)-2-(4-((6-((6-(3-((3-ethoxypyridin-2-yl)oxy)piperidin-1-yl)pyrazin-2-yl)amino)pyridin-2-yl)oxy)phenyl)acetic Acid]
- IC50: 0.49 µM

Compound: CCOc1cccnc1O[C@@H]1CCCN(c2cncc(Nc3cccc(-c4ccc(NCC(=O)O)cc4)n3)n2)C1 [Example 74, (R)-(4-(6-((6-(3-((3-ethoxypyridin-2-yl)oxy)piperidin-1-yl)pyrazin-2-yl)amino)pyridin-2-yl)phenyl)glycine]
- IC50: 0.98 µM

Compound: CCOc1ccccc1O[C@@H]1CCCN(c2cncc(Nc3cccc(N4CCC(C(=O)O)CC4)n3)n2)C1 [Example 56, (R)-1-(6-((6-(3-(2-ethoxyphenoxy)piperidin-1-yl)pyrazin-2-yl)amino)pyridin-2-yl)piperidine-4-carboxylic Acid]
- IC50: 0.13 µM

Compound: CCOc1ccccc1O[C@@H]1CCCN(c2cncc(Nc3cc(CC(C)(C)C(=O)O)ccn3)n2)C1 [Example 39, (R)-3-(2-((6-(3-(2-ethoxyphenoxy)piperidin-1-yl)pyrazin-2-yl)amino)pyridin-4-yl)-2,2-dimethylpropanoic Acid]
- IC50: 2.7 µM

Compound: CCOc1cccnc1O[C@@H]1CCCN(c2cncc(Nc3nccc(-c4cccc(CC(C)(C)C(=O)O)c4)n3)n2)C1 [Example 147, (R)-3-(3-(2-((6-(3-((3-ethoxypyridin-2-yl)oxy)piperidin-1-yl)pyrazin-2-yl)amino)pyrimidin-4-yl)phenyl)-2,2-dimethylpropanoic Acid]
- IC50: 0.15 µM
